Reference: patent US9567642B2, “Methods and products related to targeted cancer therapy” (Massachusetts Institute of Technology, priority 2012, dated 2017)

Key:
[1] = system: p53 wild type or p53 mutant cells; assay: Q-RT-PCR of doxorubicin induced p21 and CD80 mRNA; format: cell-based, human; conditions: set of p53 wild type or p53 mutant cells, FIG. 14
Protocol: Tumors were isolated from Kras^LA2/+; Trp53^LSL/LSL; Rosa26^CreERT2 animals, dissociated with collagenase and trypsin for one hour at 37° C., and then grown in DME plus 10% fetal bovine serum. Human cell lines were obtained from American Type Culture Collection and grown per manufacturer recommendations.
RNA was isolated from cultured cells with Trizol reagent following manufacturer protocol. Complementary DNA was generated from 1 μg total RNA using High Capacity RT-PCR Kit (Roche, quantitative PCR (Q-RT-PCR)) following manufacturer protocol. Total cDNA was diluted 20 fold in H2O and 10 μL was used in a SYBR green quantitative PCR reaction. Specifically, specific primers were diluted from 100 μM stocks to a final concentration of 0.25 μM into JumpStart Ready Taq SYBR green (Sigma) and 10 μL was mixed with 10 μL diluted cDNA and cycled 40 times with the following cycling parameters on a Step One Plus (Applied Biosystems) real-time thermocycler: […]

[2] = system: CD80 cell surface expression; assay: Flow cytometry of CD80 cell surface expression; format: cell-based, mouse; conditions: cells untreated, treated with tamoxifen, AdFlpO or AdCre; FIG. 11
Protocol: Tumors were isolated from Kras^LA2/+; Trp53^LSL/LSL; Rosa26^CreERT2 animals, dissociated with collagenase and trypsin for one hour at 37° C., and then grown in DME plus 10% fetal bovine serum. Human cell lines were obtained from American Type Culture Collection and grown per manufacturer recommendations. Cells were harvested from plasticware using 2 mM EDTA solution. Approximately 1 […] cells were resuspended in % FBS in PBS and incubated with APC conjugated CD80 Ab at a 1:100 dilution (Hamster IgG2 Clone:16-10A1 from BD Biosciences). Cells were scanner on a FASCaliber flow cytometer (BD Biosciences).

SMILES	induction of p21 as measured by Q-RT-PCR [1]	induction of CD80 as measured by Q-RT-PCR ([1]; induction of human CD80 mirrors p21 induction)	CD80 cell surface expression (flow cytometry histograms) [2]
COc1cccc2c1C(=O)c1c(O)c3c(c(O)c1C2=O)C[C@@](O)(C(=O)CO)C[C@@H]3O[C@H]1C[C@H](N)[C@H](O)[C@H](C)O1 [doxorubicin]	induced	induced	–
CC/C(=C(\c1ccccc1)c1ccc(OCCN(C)C)cc1)c1ccccc1 [tamoxifen]	–	–	not tamoxifen dependent
